# Laboratory results: US11667602B2, “Compounds and their use” (AstraZeneca AB, priority 2020, dated 2023)
# Legend:
# [1] = Human Plasma Protein Binding (Test B); format: in vitro ADME; conditions: fraction unbound (fu)
# Outline: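 Values given as % free (fu) in human plasma, using the method of Wernevik et al. (2020). For compounds tested more than once, the arithmetic mean is given.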
# [2] = Human Liver Microsomal Stability (Test C); format: in vitro ADME; conditions: human, liver microsomes
# Outline: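 CLint (μl/min/mg protein) derived from compound depletion in human liver microsomes following a published standardized early-DMPK protocol; replicate determinations given as arithmetic mean.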
# [3] = Rat Hepatocyte Stability (Test E); format: in vitro ADME; conditions: rat, hepatocytes, geometric mean if run multiple times
# Outline: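 Intrinsic clearance in rat hepatocytes, expressed as μl/min/10^6 cells, following the literature integrated DMPK panel method. Repeat determinations combined as geometric mean.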
# Solubility (Test F) = format: physicochemical; conditions: arithmetic mean if run multiple times
# Description: The assay was conducted according to the Solubility Assay described in pages 164-167 of Wernevik, J. et al., “A Fully Integrated Assay Panel for Early Drug Metabolism and Pharmacokinetics Profiling”, Assay and Drug Development Technologies, 2020, 18(4), 157-179. Data are reported in Table 36 as solubility ([…]. Where the assay was run multiple times for the same compound, the arithmetic mean is reported.
# human RXFP1 = molecular target: T1, human RXFP1 (Homo sapiens, UniProt Q9HBX9); assay: RXFP1 Hu cAMP (Test A); format: cell-based; parameters: expressed in transfected cells; host or cells: Jump-In T-REx CHO-K1 cells (ThermoFisher), induced with 10 ng/ml doxycycline for 24 h; conditions: RXFP1 Hu cAMP; for EC50: read-out: Test A EC50
# T1 sequence (Q9HBX9 1-757): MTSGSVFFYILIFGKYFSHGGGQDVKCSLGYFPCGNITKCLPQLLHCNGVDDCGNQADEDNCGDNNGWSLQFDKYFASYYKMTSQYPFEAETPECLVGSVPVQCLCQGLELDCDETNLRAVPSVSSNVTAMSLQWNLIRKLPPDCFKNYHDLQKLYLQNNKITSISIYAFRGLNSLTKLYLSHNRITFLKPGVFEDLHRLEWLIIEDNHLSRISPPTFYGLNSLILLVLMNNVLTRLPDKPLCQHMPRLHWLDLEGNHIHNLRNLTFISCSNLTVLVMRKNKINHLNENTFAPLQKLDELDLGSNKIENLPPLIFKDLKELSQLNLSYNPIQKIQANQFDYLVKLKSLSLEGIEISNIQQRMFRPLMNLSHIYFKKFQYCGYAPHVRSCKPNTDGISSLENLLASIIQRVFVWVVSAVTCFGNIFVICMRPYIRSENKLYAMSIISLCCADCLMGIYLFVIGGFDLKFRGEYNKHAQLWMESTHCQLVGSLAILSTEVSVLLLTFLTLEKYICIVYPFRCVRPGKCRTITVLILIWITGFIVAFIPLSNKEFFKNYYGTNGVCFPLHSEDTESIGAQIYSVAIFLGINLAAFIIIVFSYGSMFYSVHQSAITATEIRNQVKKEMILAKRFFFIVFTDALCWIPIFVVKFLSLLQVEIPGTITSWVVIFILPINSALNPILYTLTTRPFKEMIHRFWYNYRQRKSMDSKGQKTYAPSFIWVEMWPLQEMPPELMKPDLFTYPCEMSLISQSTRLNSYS
# Outline: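 CHO-K1 (Jump-In T-REx), RXFP1 induced w/ 10 ng/ml doxycycline 24 h, cryopreserved. 0.5 mM IBMX final. cAMP by HTRF, 2 h RT, std curve.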
SMILES,Test B Human Plasma Protein Binding (% free) [1] [% free],microsomal CLint [2] [µL/min/mg],hepatocyte CLint [3] [µL/min/1e6 cells],solubility (Solubility (Test F)) [µM],Test A Sinf (human RXFP1) [%],EC50 (human RXFP1) [nM]
COc1cc(F)c(O[C@H]2CC[C@@H](C(=O)O)CC2)cc1C(=O)N[C@@H]1[C@H]2CC[C@H](C2)[C@@H]1C(=O)Nc1cccc(S(F)(F)(F)(F)F)c1 [Example 182],0.45,34,35,200,107,19
"COc1cc(F)c(-c2ccc(OCC(=O)O)cc2)cc1C(=O)N[C@@H]1[C@H]2CC[C@H](C2)[C@@H]1C(=O)Nc1cccc(S(=O)(=O)C(F)(F)F)c1 [Example 257, 2-((2′-Fluoro-4′-methoxy-5′-(((1S,2R,3S,4R)-3-((3-((trifluoromethyl)sulfonyl)phenyl)carbamoyl)bicyclo[2.2.1]heptan-2-yl)carbamoyl)-[1,1′-biphenyl]-4-yl)oxy)acetic acid]",0.35,16,9.5,> 1000,96,59
"COc1cc(F)c(-c2ccc(C(N)=O)cc2)cc1C(=O)N[C@@H]1[C@H]2CC[C@H](C2)[C@@H]1C(=O)Nc1cccc(S(=O)(=O)C(F)(F)F)c1 [Example 434, 6-Fluoro-4-methoxy-N3-((1S,2R,3S,4R)-3-((3-((trifluoromethyl)sulfonyl)phenyl)carbamoyl)bicyclo[2.2.1]heptan-2-yl)-[1,1′-biphenyl]-3,4′-dicarboxamide]",<0.36,110,13,130,82,590
COc1cc(F)c(O[C@H]2CC[C@@H](C(=O)O)CC2)cc1C(=O)N[C@@H]1[C@H]2CC[C@H](C2)[C@@H]1C(=O)Nc1nccc(C(F)(F)F)n1 [Example 32],13,10,26,> 1000,100,> 40000
"COc1cc(F)c(O[C@H]2CC[C@@](C)(C(=O)O)CC2)cc1C(=O)Nc1cc2ccccc2cc1C(=O)NCC1(C)CCC1 [Example 215, (1s,4s)-4-(2-Fluoro-4-methoxy-5-((3-(((1-methylcyclobutyl)methyl)carbamoyl)naphthalen-2-yl)carbamoyl)phenoxy)-1-methylcyclohexane-1-carboxylic acid]",0.20,< 3,20,< 0.23,143,200
COc1cc(F)c(O[C@H]2CC[C@@H](C(=O)O)CC2)cc1C(=O)N[C@@H]1[C@H]2CC[C@H](C2)[C@@H]1C(=O)NCCC1CC1 [Example 176],9.3,8,120,210,75,> 4300
COc1cc(F)c(-c2ccc(CCC(=O)O)cc2)cc1C(=O)N[C@H]1[C@@H](C(=O)Nc2cccc(S(=O)(=O)C(F)(F)F)c2)[C@@H]2C=C[C@H]1C2 (racemic) [Example 283],<0.29,12,15,220,87,220
"COc1cc(F)c(O[C@H]2CC[C@@H](C(=O)O)CC2)cc1C(=O)N[C@H]1[C@@H](C(=O)Nc2ccc(F)c(C(F)(F)F)c2)[C@H]2CC[C@@H]1O2 [Example 49, (1R,4s)-4-(2-Fluoro-5-(((1S,2S,3R,4R)-3-((4-fluoro-3-(trifluoromethyl)phenyl)carbamoyl)-7-oxabicyclo[2.2.1]heptan-2-yl)carbamoyl)-4-methoxyphenoxy)cyclohexane-1-carboxylic acid]",3.2,< 3,< 1,24,,> 50000
COc1cc(F)c(O[C@H]2CC[C@@H](C(=O)O)CC2)cc1C(=O)N[C@@H]1[C@H]2CC[C@H](C2)[C@@H]1C(=O)Nc1cccc(I)c1 [Example 185],0.37,48,83,270,108,200
COc1cc(F)c(O[C@H]2CC[C@@H](C(=O)O)CC2)cc1C(=O)N[C@@H]1[C@H]2CC[C@H](C2)[C@@H]1C(=O)Nc1cc(C(F)(F)F)ncn1 [Example 31],3.7,18,13,940,81,750
"COc1cc(C#N)c(O[C@H]2C[C@@]3(C2)C[C@H](C(=O)O)C3)cc1C(=O)N[C@@H]1[C@H]2CC[C@H](C2)[C@@H]1C(=O)NCC1(C)CCC1 (single isomer, unassigned) [Example 6, (2R*,4r,6R)-6-(2-Cyano-4-methoxy-5-(((1S,2R,3S,4R)-3-(((1-methylcyclobutyl)methyl)carbamoyl)bicyclo[2.2.1]heptan-2-yl)carbamoyl)phenoxy)spiro[3.3]heptane-2-carboxylic acid]",4.2,35,21,820,89,720
CCCCNC(=O)[C@H]1[C@@H]2CC[C@@H](C2)[C@H]1NC(=O)c1cc(O[C@H]2CC[C@@](C)(C(=O)O)CC2)c(C#N)cc1OC [Example 91],5.9,20,59,830,114,270
COc1cc(C#N)c(O[C@H]2CC[C@@](C)(C(=O)O)CC2)cc1C(=O)N[C@@H]1[C@H]2CC[C@H](C2)[C@@H]1C(=O)NCC1(CF)CC1 [Example 95],18,4.4,21,880,123,480
COc1cc(F)c(O[C@H]2CC[C@@H](C(=O)O)CC2)cc1C(=O)N[C@@H]1[C@H]2CC[C@H](C2)[C@@H]1C(=O)Nc1cc(C)cc(C(F)(F)F)c1 [Example 188],0.64,36,38,290,103,270
